# Measurements taken from patent US20210369740A1, “Synthesis of Anti-inflammatory and Anti-cancer Agents through Fungal Transformation of Mibolerone” (priority 2021, published 2021).
# Structures can show the parent of a compound that is named as a salt. Where two headings read alike, the source gives them in different places.
# Key:
# TNF-α production = assay: Cytokine inhibition assay (TNF-α by ELISA in LPS-stimulated, PMA-differentiated THP-1 cells); assay type: cell-based, human; details: for IC50: Homo sapiens, read-out: IC50 against TNF-α production
# [1] = system: nitric oxide (NO) production; assay: Nitric oxide assay (LPS-induced J774.2 macrophages, Griess method); assay type: cell-based, mouse
# [2] = target: T1, human placental aromatase enzyme (Homo sapiens, UniProt P11511); assay: Human placental aromatase inhibition assay; assay type: biochemical
# T1 construct: from tissue; host or cells: human placenta
# T1 sequence (P11511 1-503): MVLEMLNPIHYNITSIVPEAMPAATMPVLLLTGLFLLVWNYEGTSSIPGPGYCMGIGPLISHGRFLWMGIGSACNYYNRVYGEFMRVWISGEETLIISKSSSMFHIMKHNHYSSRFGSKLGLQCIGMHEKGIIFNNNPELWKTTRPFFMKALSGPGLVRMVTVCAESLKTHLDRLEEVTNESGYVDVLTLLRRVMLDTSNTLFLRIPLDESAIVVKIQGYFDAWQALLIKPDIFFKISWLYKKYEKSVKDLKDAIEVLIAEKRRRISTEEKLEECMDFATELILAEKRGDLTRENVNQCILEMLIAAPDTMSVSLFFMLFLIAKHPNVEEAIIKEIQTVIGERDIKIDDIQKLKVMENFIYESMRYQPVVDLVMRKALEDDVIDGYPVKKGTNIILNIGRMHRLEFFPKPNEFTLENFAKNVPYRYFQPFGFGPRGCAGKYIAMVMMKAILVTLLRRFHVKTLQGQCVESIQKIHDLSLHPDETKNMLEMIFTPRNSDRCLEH
# T-cell proliferation = assay: T-Lymphocyte proliferation assay (PHA-activated PBMCs, Alamar blue); assay type: cell-based; details: human PBMC T-cells activated with phytohemagglutinin-L, 48 h, in vitro; for IC50: T-cell, read-out: IC50 against T-cell proliferation
# [3] = Cytotoxicity against BJ normal cell line; details: human, BJ normal human fibroblast cells
# [4] = Mus musculus, J774.2, read-out: IC50 against nitric oxide (NO) production
# [5] = testosterone to 17β-estradiol conversion, in vitro, read-out: IC50 against human placental aromatase enzyme
# [6] = THP-1 cells differentiated with PMA, LPS-stimulated, 4 h, in vitro
# [7] = J774.2 mouse macrophages, LPS-induced, in vitro, read-out: IC50 against nitric oxide (NO) production
SMILES,"IC50 [2, 5]",IC50 against TNF-α production (TNF-α production; [6]),IC50 (T-cell proliferation),"IC50 [1, 7]",also measured
"CC(=O)CCCCn1c(=O)c2c(ncn2C)n(C)c1=O [pentoxifylline, reference compound]",–,–,–,–,"IC50 (TNF-α production; THP-1, 4 h): 341 ± 2.1 µM"
"C[C@@H]1Cc2cc(O)ccc2[C@@H]2[C@@H]1[C@@H]1CC[C@](C)(O)[C@@]1(C)C[C@@H]2O [Compound 3, 11β,17β-dihydroxy-7α,17α-dimethyl-estra-1,3,5-triene-3-one]",0.317 ± 0.012 µM,inactive,4.24 ± 0.2 µM,–,"IC50 [1, 4]: 49.1 ± 0.4 µM"
"C[C@@H]1C[C@H]2C[C@H](O)CC[C@]2(O)[C@H]2CC[C@@]3(C)[C@@H](CC[C@]3(C)O)[C@H]12 [Compound 4, 3α,10β,17β-trihydroxy-7α,17α-dimethyl-5α-estrane]",0.072 ± 0.001 µM,–,–,–,"IC50 [1, 4]: 58 ± 0.1 µM; IC50 (TNF-α production; THP-1, 4 h): 28.5 ± 0.07 µM; IC50 against T-cell proliferation (T-cell proliferation): inactive"
"CC1=CC2=CC(=O)CC[C@@H]2[C@H]2CC[C@@]3(C)[C@@H](CC[C@]3(C)O)[C@H]12 [Compound 2, 17β-hydroxy-7α,17α-dimethylestr-4,6-diene-3-one]",0.31 ± 0.028 µM,inactive,3.83 ± 0.3 µM,54.4 ± 0.3 µM,–
"C[C@@H]1C(=O)C2CC(=O)CC[C@@H]2[C@H]2CC[C@@]3(C)[C@@H](CC[C@]3(C)O)[C@@H]21 (stereo partly drawn) [Compound 5, 17β-hydroxy-7α,17α-dimethyl-5α-estrane-3,6-dione]",–,inactive,–,52.7 ± 0.3 µM,"IC50 against human placental aromatase enzyme ([2]; testosterone to 17β-estradiol conversion, in vitro): inactive; IC50 against T-cell proliferation (T-cell proliferation): inactive"
"C[C@@H]1CC2=CC(=O)CC[C@@H]2[C@H]2CC[C@@]3(C)[C@@H](CC[C@]3(C)O)[C@@H]21 [Compound 1, Mibolerone]",–,–,6.55 ± 0.6 µM,46 ± 2.4 µM,IC50 [3]: 80 ± 2.1 µM; IC50 [2]: 0.372 ± 0.009 µM; IC50 (TNF-α production; [6]): 115.8 ± 0.7 µM
"CNC(=N)NCCC[C@H](N)C(=O)O [L-NMMA, NG-Monomethyl-L-arginine, monoacetate salt, reference compound]",–,–,–,128.2 ± 0.8 µM,–
"C[C@]12C=CC(=O)C=C1CC[C@@H]1[C@@H]2[C@@H](O)C[C@@]2(C)[C@H]1CC[C@]2(O)C(=O)CO [prednisolone, reference compound]",–,–,9.75 ± 0.03 µM,–,–
